Laboratory results taken from patent US20250170130A1, “MODULATORS OF MYC FAMILY PROTO-ONCOGENE PROTEIN” (Nalo Therapeutics, priority 2022, published 2025).

How the values were obtained:
MycC = target: T1, MycC (Homo sapiens, UniProt P01106); assay: Degradation of MycC protein in L363 cells, JESS/Western blot of lysates; assay type: cell-based; settings: L-363, 24 h, L-363 cells, 24 h; for Dmax at 0.5 µM: read-out: % Degradation of MycC (L-363) 24 h, 0.5 μM; for Dmax at 1 µM: read-out: % Degradation of MycC (L-363) 24 h, 1 μM; for Dmax at 3 µM: read-out: % Degradation of MycC (L-363) 24 h, 3 μM; for Dmax at 6 µM: read-out: % Degradation of MycC (L-363) 24 h, 6 μM
T1 construct: endogenous in cells; host or cells: L363
T1 sequence (P01106 whole entry): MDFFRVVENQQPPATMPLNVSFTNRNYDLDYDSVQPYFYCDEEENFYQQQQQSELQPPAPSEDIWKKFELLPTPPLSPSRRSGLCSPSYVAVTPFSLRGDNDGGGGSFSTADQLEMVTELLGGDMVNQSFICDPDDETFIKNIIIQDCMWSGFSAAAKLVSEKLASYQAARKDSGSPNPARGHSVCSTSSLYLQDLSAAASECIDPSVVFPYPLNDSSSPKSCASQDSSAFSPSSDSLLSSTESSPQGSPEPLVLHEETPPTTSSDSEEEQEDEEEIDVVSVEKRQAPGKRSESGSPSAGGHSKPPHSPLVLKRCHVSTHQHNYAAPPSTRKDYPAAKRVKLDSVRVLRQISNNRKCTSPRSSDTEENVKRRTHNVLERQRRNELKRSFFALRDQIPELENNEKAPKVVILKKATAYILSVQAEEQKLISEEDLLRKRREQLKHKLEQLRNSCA
Experimental: For L363 cells (suspension), 1E6 cells were plated into each well of a 6 well plate. For SK-N-BE(2) cells (adherent), 5E5 cells were plated into each well of a 6 well dish. […] All compounds were diluted to 10 mM in DMSO. Cells were treated with the compound for 24 hrs, then for both cell types, media containing cells were removed from wells into a 15 ml centrifuge tube, and remaining adherent SK-N-BE(2) cells were also scraped from the wells into the appropriate tubes. Tubes were centrifuged, cells were washed with PBS then re-centrifuged to pellet cells. A RIPA buffer cocktail was added to the cells on ice for 5 mins. Cell lysates were clarified by centrifugation and stored at −80 degrees until required. BCA assay was performed on each lysate to determine the protein concentration.
(§1) Once an appropriate lysate concentration and antibody concentration was determined, samples were screened in the JESS technology (Protein Simple, San Jose, CA—https://www.proteinsimple.com/jess.html).
(§2) Target protein antibodies (n-myc and c-myc) were detected in the chemi-luminescence channel and loading controls (tubulin and GAPDH) were detected using a Near Infra Red (NIR) labeled secondary antibody.
For SK-N-EB2 adherent cells, 5E5 cells in 1.9 mls media were plated into 6 well dishes and incubated for 24 hrs. […] Cells were scrapped off the plate, centrifuged, washed with PBS, centrifuged, then a RIPA buffer cocktail added to the cells (100 ul), centrifuged and stored at −80 for later analysis. For L363 suspension cells, 1E6 cells were plated into […] (950 ul media) and incubated for 24 hrs. […] Cells were aspirated into tubes, centrifuged, washed with PBS, centrifuged, then a RIPA buffer cocktail added to the cells (100 ul), centrifuged and stored at −80 for later analysis.
(§3) For Western blot, a BCA (total protein) assay was run on all samples, these were then run in batches of 5 compounds plus control (DMSO) on each Western blot run—n-myc and c-myc were run in separate experiments in the chemiluminescence channel. Both tubulin and GAPDH were run as loading controls in all lanes in the near infra red channel.

MycN = target: T2, MycN (Homo sapiens, UniProt P04198); assay: Degradation of MycN protein in SK-N-BE(2) cells, JESS/Western blot of lysates; assay type: cell-based; settings: SKNBE2, 24 h, SKNBE2 cells, 24 h; for Dmax at 0.5 µM: read-out: % Degradation of MycN (SKNBE2) 24 h, 0.5 μM; for Dmax at 1 µM: read-out: % Degradation of MycN (SKNBE2) 24 h, 1 μM; for Dmax at 3 µM: read-out: % Degradation of MycN (SKNBE2) 24 h, 3 μM; for Dmax at 6 µM: read-out: % Degradation of MycN (SKNBE2) 24 h, 6 μM
T2 construct: endogenous in cells; host or cells: SK-N-BE(2)
T2 sequence (P04198 1-464): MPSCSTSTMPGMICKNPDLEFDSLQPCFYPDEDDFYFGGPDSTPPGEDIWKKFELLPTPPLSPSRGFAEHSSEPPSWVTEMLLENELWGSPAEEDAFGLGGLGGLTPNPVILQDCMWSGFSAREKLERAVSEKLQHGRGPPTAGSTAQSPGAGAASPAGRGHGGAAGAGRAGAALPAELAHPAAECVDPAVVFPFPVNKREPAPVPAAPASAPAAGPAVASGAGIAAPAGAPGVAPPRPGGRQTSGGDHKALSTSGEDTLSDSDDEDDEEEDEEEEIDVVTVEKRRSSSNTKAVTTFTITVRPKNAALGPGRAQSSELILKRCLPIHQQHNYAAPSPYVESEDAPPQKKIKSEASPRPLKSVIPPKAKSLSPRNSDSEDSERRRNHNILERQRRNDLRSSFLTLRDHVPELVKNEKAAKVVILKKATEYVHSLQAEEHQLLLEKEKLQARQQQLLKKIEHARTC
Experimental: For L363 cells (suspension), 1E6 cells were plated into each well of a 6 well plate. For SK-N-BE(2) cells (adherent), 5E5 cells were plated into each well of a 6 well dish. Cells were cultured for 24 hrs then treated with exemplary compounds at […] final assay concentrations plus DMSO control. All compounds were diluted to 10 mM in DMSO. Cells were treated with the compound for 24 hrs, then for both cell types, media containing cells were removed from wells into a 15 ml centrifuge tube, and remaining adherent SK-N-BE(2) cells were also scraped from the wells into the appropriate tubes. Tubes were centrifuged, cells were washed with PBS then re-centrifuged to pellet cells. A RIPA buffer cocktail was added to the cells on ice for 5 mins. Cell lysates were clarified by centrifugation and stored at −80 degrees until required. BCA assay was performed on each lysate to determine the protein concentration.
as §1, §2
For SK-N-EB2 adherent cells, 5E5 cells in 1.9 mls media were plated into 6 well dishes and incubated for 24 hrs. Exemplary compounds were added (100 ul, 1 in 20 dilution in media) to each well (final assay concentration 6, 3, 1 and […]) together with DMSO control wells and incubated for 24 hrs. Cells were scrapped off the plate, centrifuged, washed with PBS, centrifuged, then a RIPA buffer cocktail added to the cells (100 ul), centrifuged and stored at −80 for later analysis. For L363 suspension cells, 1E6 cells were plated into 24 well dishes (950 ul media) and incubated for 24 hrs. Exemplary compounds were added (50 ul, 1 in 20 dilution in media) to each well (final assay concentration 6, 3, 1 and […]) together with DMSO control wells and incubated for 24 hrs. Cells were aspirated into tubes, centrifuged, washed with PBS, centrifuged, then a RIPA buffer cocktail added to the cells (100 ul), centrifuged and stored at −80 for later analysis.
as §3

Row | Compound | Dmax at 0.5 µM (MycC) | Dmax at 1 µM (MycC) | Dmax at 3 µM (MycC) | Dmax at 6 µM (MycC) | Dmax at 0.5 µM (MycN) | Dmax at 1 µM (MycN) | Dmax at 3 µM (MycN) | Dmax at 6 µM (MycN)
1 | CN1CC2(C1)CN(c1nccc(Nc3cc(C4CC4)[nH]n3)n1)C2 [Compound 4, N-(5-Cyclopropyl-1H-pyrazol-3-yl)-2-(6-methyl-2,6-diazaspiro[3.3]heptan-2-yl)pyrimidin-4-amine] | < 20% | 20 to 49% | 80 to 100% | 80 to 100% | < 20% | 20 to 49% | 20 to 49% | 20 to 49%
2 | CN(C)CC1CCN(c2nccc(Nc3cc(C4CC4)[nH]n3)n2)CC1 [Compound 5, N-(5-Cyclopropyl-1H-pyrazol-3-yl)-2-(4-((dimethylamino)methyl)piperidin-1-yl)pyrimidin-4-amine] | < 20% | < 20% | 20 to 49% | 20 to 49% | – | – | – | 20 to 49%
3 | c1cc(Nc2cc(C3CC3)[nH]n2)nc(N2CC3(CNC3)C2)n1 [Compound 6, N-(5-Cyclopropyl-1H-pyrazol-3-yl)-2-(2,6-diazaspiro[3.3]heptan-2-yl)pyrimidin-4-amine] | < 20% | 20 to 49% | < 20% | 20 to 49% | < 20% | < 20% | < 20% | < 20%
4 | CNC[C@H]1CCN(c2nccc(Nc3cc(C4CC4)[nH]n3)n2)C1 [Compound 7, (R)—N-(5-Cyclopropyl-1H-pyrazol-3-yl)-2-(3-((methylamino)methyl)pyrrolidin-1-yl)pyrimidin-4-amine] | – | < 20% | – | – | < 20% | < 20% | 50 to 79% | 80 to 100%
5 | CN[C@H]1CCN(c2nccc(Nc3cc(C4CC4)[nH]n3)n2)C1 [Compound 8, (S)—N-(5-cyclopropyl-1H-pyrazol-3-yl)-2-(3-(methylamino)pyrrolidin-1-yl)pyrimidin-4-amine] | < 20% | < 20% | 20 to 49% | – | – | – | < 20% | –
6 | CN(C)[C@H]1CCN(c2nccc(Nc3cc(C4CC4)[nH]n3)n2)C1 [Compound 9, (S)—N-(5-Cyclopropyl-1H-pyrazol-3-yl)-2-(3-(dimethylamino)pyrrolidin-1-yl)pyrimidin-4-amine] | 20 to 49% | 20 to 49% | 20 to 49% | 80 to 100% | 20 to 49% | 20 to 49% | < 20% | < 20%
7 | NCC1CCN(c2nccc(Nc3cc(C4CC4)[nH]n3)n2)CC1 [Compound 10, 2-(4-(aminomethyl)piperidin-1-yl)-N-(5-cyclopropyl-1H-pyrazol-3-yl)pyrimidin-4-amine] | < 20% | < 20% | – | 20 to 49% | – | 20 to 49% | 80 to 100% | 80 to 100%
8 | NC[C@H]1CCN(c2nccc(Nc3cc(C4CC4)[nH]n3)n2)C1 [Compound 11, (R)-2-(3-(Aminomethyl)pyrrolidin-1-yl)-N-(5-cyclopropyl-1H-pyrazol-3-yl)pyrimidin-4-amine] | – | – | < 20% | – | < 20% | 80 to 100% | 80 to 100% | 80 to 100%
9 | CNCC1CCN(c2nccc(Nc3cc(C4CC4)[nH]n3)n2)CC1 [Compound 12, N-(5-Cyclopropyl-1H-pyrazol-3-yl)-2-(4-((methylamino)methyl)piperidin-1-yl)pyrimidin-4-amine] | < 20% | < 20% | 50 to 79% | 80 to 100% | – | – | 20 to 49% | 50 to 79%
10 | CNCC12CC(C1)N(c1nccc(Nc3cc(C4CC4)[nH]n3)n1)C2 [Compound 14, N-(5-cyclopropyl-1H-pyrazol-3-yl)-2-(4-((methylamino)methyl)-2-azabicyclo[2.1.1]hexan-2-yl)pyrimidin-4-amine] | 20 to 49% | 80 to 100% | 80 to 100% | 80 to 100% | < 20% | 20 to 49% | 20 to 49% | 80 to 100%
11 | CN1C[C@@H]2CN(c3nccc(Nc4cc(C5CC5)[nH]n4)n3)C[C@@H]2C1 [Compound 15, 2-[rac-(3aR,6aS)-2-methyl-1,3,3a,4,6,6a-hexahydropyrrolo[3,4-c]pyrrol-5-yl]-N-(5-cyclopropyl-1H-pyrazol-3-yl)pyrimidin-4-amine] | < 20% | 20 to 49% | 20 to 49% | 20 to 49% | 20 to 49% | 20 to 49% | 50 to 79% | 80 to 100%
12 | CNC[C@H]1CCCN(c2nccc(Nc3cc(C4CC4)[nH]n3)n2)C1 [Compound 16, N-(5-Cyclopropyl-1H-pyrazol-3-yl)-2-[(3R)-3-(methylaminomethyl)-1-piperidyl]pyrimidin-4-amine] | < 20% | < 20% | < 20% | < 20% | < 20% | 80 to 100% | 80 to 100% | 80 to 100%
13 | CN(C)[C@@H]1CCN(c2nccc(Nc3cc(C4CC4)[nH]n3)n2)C1 [Compound 17, N-(5-cyclopropyl-1H-pyrazol-3-yl)-2-[(3R)-3-(dimethylamino)pyrrolidin-1-yl]pyrimidin-4-amine] | – | – | < 20% | 80 to 100% | 20 to 49% | 20 to 49% | 50 to 79% | 80 to 100%
14 | c1cc(Nc2cc(C3CC3)[nH]n2)nc(N2C[C@H]3CNC[C@H]3C2)n1 [Compound 18, N-(5-Cyclopropyl-1H-pyrazol-3-yl)-2-[rac-(3aR,6aS)-2,3,3a,4,6,6a-hexahydro-1H-pyrolo[3,4-c]pyrrol-5-yl]pyrimidin-4-amine] | < 20% | < 20% | < 20% | 20 to 49% | 20 to 49% | 50 to 79% | 80 to 100% | 80 to 100%
